From patent US12180139B2, “Method for preparing aminoalkanoic acid derivative containing biphenyl group” (AMTIXBIO CO., LTD., priority 2019, dated 2024)

Assays:
C. albicans = conditions: RPMI1640 broth, 35° C., 48 hours, visual reading; expressed as a range value
Experimental: (§3) An in vitro antifungal susceptibility test was performed in accordance with the US Clinical and Laboratory Standards Institute (CLSI) guidelines to measure the degree of antifungal activity of the compounds synthesized in the Preparation Examples against opportunistic pathogenic fungi. […] The MIC value (μg/ ? ) is expressed as a range value. Specifically, Candida species and Cryptococcus neoformans were incubated in a Sabouraud dextrose agar (SDA) (Sigma-Aldrich) solid medium for 24 and 48 hours, respectively to obtain single colonies. The obtained single colonies were suspended in 0.85% physiological saline to prepare fungal cell suspension (1 to 5×10^6 cells/ ? ). Fungal cells 2000-fold diluted in RPMI1640 broth (Sigma-Aldrich) were seeded on 96-well plates (5×10^2 to 2.5×10^3 cells/ ? , 195 ? /well). Serial two-fold dilutions (128, 64, 32, 16, 8, 4, 2, 1, and 0.5 μg/ ? ) of compounds were prepared by diluting the compounds synthesized according to the above preparation examples. Then, 5 ? from each dilution was added to the well of the 96-well plate containing fungal cell suspension to give a final suspension of 200 ? per well. […] As a positive control, amphotericin B (AMB), which is highly toxic to the human body but is known as a representative antifungal agent, was used.

C. neoformans = conditions: RPMI1640 broth, 35° C., 72 hours, visual reading; expressed as a range value
interleukin 6 (IL-6) = conditions: RAW264.7 cells, compound 8 μg/mL 1 hour, then LPS 1 μg/mL 24 hours; relative to LPS without compound
Experimental: The anti-inflammatory effects of the compounds of the present invention were evaluated using RAW264.7 cells which were stimulated to secrete interleukin 6 (IL-6). Specifically, RAW264.7 cells (obtained from Korean Cell Line Bank), mouse macrophages, were inoculated into a 12-well plate at 5×10^5 cells/well and incubated at 37° C. for 16 to 24 hours. The compounds of the present invention were added to the cell culture medium containing RAW264.7 cells incubated as above at a final concentration of 0 or 8 μg/ ? , and then incubated at 37° C. for 1 hour. Next, lipopolysaccharide (LPS, Sigma-Aldrich, USA) was further added to the medium at a final concentration of 1 μg/ ? , and the medium was incubated at 37° C. for 24 hours to induce IL-6 expression. Thereafter, IL-6 levels produced by the RAW264.7 cells were measured using an ELISA kit (Komabiotech Inc. Korea) according to the manufacturer's instructions. In Table 9, IL6 levels were expressed as a relative percentage (%) between LPS-induced IL6 levels after the treatment with the compound of the present invention and LPS-induced IL6 levels without the treatment of the compound of the present invention.

A. fumigatus = conditions: visual reading; expressed as a range value
Experimental: as §3

C. glabrata = conditions: RPMI1640 broth, 35° C., 48 hours, visual reading; expressed as a range value
MRSA = experiment: Antibacterial MIC test (CLSI); type: cell-based, Methicillin-resistant Staphylococcus aureus; conditions: MHB liquid medium, 37° C., 24 hours
Experimental: (§1) The MIC test was conducted in accordance CLSI guidelines. […] As a positive control, Nofloxacin and Vancomycin were used.

B. cereus (+) = experiment: Antibacterial MIC test (CLSI); type: cell-based; conditions: MHB liquid medium, 37° C., 24 hours
Experimental: as §1

E. coli (−) = experiment: Antibacterial MIC test (CLSI); type: cell-based; conditions: MHB liquid medium, 37° C., 24 hours
Experimental: as §1

M. luteus (+) = experiment: Antibacterial MIC test (CLSI); type: cell-based; conditions: MHB liquid medium, 37° C., 24 hours
Experimental: as §1

B. subtilis (+) = experiment: Antibacterial MIC test (CLSI); type: cell-based; conditions: MHB liquid medium, 37° C., 24 hours
Experimental: as §1

S. aureus enterica (−) = experiment: Antibacterial MIC test (CLSI); type: cell-based; conditions: MHB liquid medium, 37° C., 24 hours
Experimental: as §1

P. acnes (+) = experiment: Antibacterial MIC test (CLSI); type: cell-based; conditions: MHB liquid medium, 37° C., 24 hours
Experimental: as §1

L. monocytogenes (+) = experiment: Antibacterial MIC test (CLSI); type: cell-based; conditions: MHB liquid medium, 37° C., 24 hours
Experimental: as §1

B. coagulans (+) = experiment: Antibacterial MIC test (CLSI); type: cell-based; conditions: MHB liquid medium, 37° C., 24 hours
Experimental: as §1

S. epidermidis (+) = conditions: MHB liquid medium, 37° C., 24 hours
Experimental: (§2) The antibacterial activities against Gram-positive bacteria, Gram-negative bacteria or multi-drug resistant bacteria were evaluated for the compounds of the present invention. The MIC test was conducted in accordance CLSI guidelines. E. coli(−), P. aeruginosa(−), and S. enterica(−) were used as Gram-negative bacteria, B. cereus(+), B. subtilis(+), B. coagulans(+), L. monocytogenes(+), M. luteus(+), P. acnes(+), S. epidermidis(+), and S. aureus(+) were used as Gram-positive bacteria. Methicillin-resistant Staphylococcus aureus (MRSA) was used as multi-drug resistant bacteria. The bacterial cells were incubated until the OD600 of the single colonies reached 0.1. […] Subsequently, bacterial cells were incubated at 37° C. for 24 hours, and then the MICs (μg/ ? ) were determined by visual reading and optical density detection at 600 nm (OD600). As a positive control, Nofloxacin and Vancomycin were used.

S. aureus (+) = conditions: MHB liquid medium, 37° C., 24 hours
Experimental: as §2

Row | SMILES | MIC (μg/mL) C. albicans (C. albicans) | MIC (μg/mL) C. neoformans (C. neoformans) | Relative IL-6 levels (%) (interleukin 6 (IL-6)) | MIC (μg/mL) A. fumigatus (A. fumigatus) | MIC (μg/mL) C. glabrata (C. glabrata) | MIC MRSA (MRSA) [µg/mL] | MIC B. cereus (+) (B. cereus (+)) [µg/mL] | MIC E. coli (−) (E. coli (−)) [µg/mL] | MIC M. luteus (+) (M. luteus (+)) [µg/mL] | MIC B. subtilis (+) (B. subtilis (+)) [µg/mL] | MIC S. aureus enterica (−) (S. aureus enterica (−)) [µg/mL] | MIC P. acnes (+) (P. acnes (+)) [µg/mL] | MIC L. monocytogenes (+) (L. monocytogenes (+)) [µg/mL] | MIC B. coagulans (+) (B. coagulans (+)) [µg/mL] | MIC S. epidermidis (+) (S. epidermidis (+)) [µg/mL] | MIC S. aureus (+) (S. aureus (+)) [µg/mL]
1 | CCCC(N)C(=O)NCCc1ccc(-c2ccc(F)c(F)c2)cc1.Cl (racemic) [Compound 82, (R)/(S)-2-amino-N-(2-(3′,4′-difluoro-[1,1′-biphenyl]-4-yl)ethyl)pentanamide hydrochloride] | 4~16 μg/mL | 4~16 μg/mL | 3 | 4~16 μg/mL | 4~16 μg/mL | – | – | – | – | – | – | – | – | – | – | –
2 | CCCC(NC)C(=O)NCCc1ccc(-c2ccc(C(F)(F)F)cc2)cc1.Cl (racemic) [Compound 87, (R)/(S)-2-(methylamino)-N-(2-(4′-(trifluoromethyl)-[1,1′-biphenyl]-4-yl)ethyl)pentanamide hydrochloride] | 4~16 μg/mL | 4~16 μg/mL | 24 | 4~16 μg/mL | 4~16 μg/mL | – | – | – | – | – | – | – | – | – | – | –
3 | CCCC(N)C(=O)Nc1ccc(-c2ccc(OC(F)(F)F)cc2)cc1.Cl (racemic) [Compound 32, (R)/(S)-2-amino-N-(4′-(trifluoromethoxy)-[1,1′-biphenyl]-4-yl)pentanamide hydrochloride] | 4~16 μg/mL | 2~8 μg/mL | 16 | 4~16 μg/mL | 4~16 μg/mL | – | – | – | – | – | – | – | – | – | – | –
4 | CCCCC(N)C(=O)Nc1ccc(-c2ccc(Cl)c(Cl)c2)cc1.Cl (racemic) [Compound 31, (R)/(S)-2-amino-N-(3′,4′-dichloro-[1,1′-biphenyl]-4-yl)hexanamide hydrochloride] | 0.5~4 μg/mL | 0.5~4 μg/mL | – | 0.5~4 μg/mL | 0.5~4 μg/mL | <4 | <4 | <4 | <4 | <4 | 8 | <4 | <4 | <4 | <4 | <4
5 | CCC(N)C(=O)Nc1ccc(-c2ccc(Cl)c(Cl)c2)cc1.Cl (racemic) [Compound 29, (R)/(S)-2-amino-N-(3′,4′-dichloro-[1,1′-biphenyl]-4-yl)butanamide hydrochloride] | 4~16 μg/mL | 2~8 μg/mL | – | 4~16 μg/mL | 4~16 μg/mL | <4 | 8 | 8 | <4 | <4 | 8 | <4 | <4 | <4 | <4 | <4
6 | CCCCC(N)C(=O)NCc1ccc(-c2ccc(Cl)c(Cl)c2)cc1.Cl (racemic) [Compound 46, (R)/(S)-2-amino-N-((3′,4′-dichloro-[1,1′-biphenyl]-4-yl)methyl)hexanamide hydrochloride] | 2~8 μg/mL | 0.5~4 μg/mL | – | 2~8 μg/mL | 2~8 μg/mL | 8 | 16 | 32 | 8 | 8 | 32 | 8 | 8 | 4 | 8 | 8
7 | CCCCC(NC)C(=O)NCCc1ccc(-c2ccc(C(F)(F)F)cc2)cc1.Cl (racemic) [Compound 88, (R)/(S)-2-(methylamino)-N-(2-(4′-(trifluoromethyl)-[1,1′-biphenyl]-4-yl)ethyl)hexanamide hydrochloride] | 4~16 μg/mL | 2~8 μg/mL | – | 4~16 μg/mL | 4~16 μg/mL | 8 | >64 | 8 | >64 | 32 | >64 | <4 | <4 | <4 | 8 | 8
8 | CCC(NC)C(=O)NCCc1ccc(-c2ccc(C(F)(F)F)cc2)cc1.Cl (racemic) [Compound 86, (R)/(S)-2-(methylamino)-N-(2-(4′-(trifluoromethyl)-[1,1′-biphenyl]-4-yl)ethyl)butanamide hydrochloride] | 16~64 μg/mL | 8~32 μg/mL | – | 16~64 μg/mL | 16~64 μg/mL | 32 | 64 | 32 | 16 | 32 | 64 | 16 | 16 | <4 | 16 | 32
9 | CCC(NC)C(=O)Nc1ccc(-c2ccc(Cl)c(Cl)c2)cc1.Cl (racemic) [Compound 33, (R)/(S)-N-(3′,4′-dichloro-[1,1′-biphenyl]-4-yl)-2-(methylamino)butanamide hydrochloride] | 8~32 μg/mL | 4~16 μg/mL | – | 8~32 μg/mL | 8~32 μg/mL | <4 | 16 | 8 | <4 | 8 | 16 | <4 | <4 | <4 | <4 | 8
